Source: patent publication US20150291933A1, “CELL DIFFERENTIATION” (THE UNIVERSITY OF MANCHESTER, priority 2012, published 2015)
Entries after “also recorded” stand apart in the source; their conditions may differ. Where no end group is shown, it is not given here.

Legend:
human E-cadherin = molecular target: T1, human E-cadherin (human, UniProt P12830 155-882); experiment: cell-based or functional assay
T1 sequence: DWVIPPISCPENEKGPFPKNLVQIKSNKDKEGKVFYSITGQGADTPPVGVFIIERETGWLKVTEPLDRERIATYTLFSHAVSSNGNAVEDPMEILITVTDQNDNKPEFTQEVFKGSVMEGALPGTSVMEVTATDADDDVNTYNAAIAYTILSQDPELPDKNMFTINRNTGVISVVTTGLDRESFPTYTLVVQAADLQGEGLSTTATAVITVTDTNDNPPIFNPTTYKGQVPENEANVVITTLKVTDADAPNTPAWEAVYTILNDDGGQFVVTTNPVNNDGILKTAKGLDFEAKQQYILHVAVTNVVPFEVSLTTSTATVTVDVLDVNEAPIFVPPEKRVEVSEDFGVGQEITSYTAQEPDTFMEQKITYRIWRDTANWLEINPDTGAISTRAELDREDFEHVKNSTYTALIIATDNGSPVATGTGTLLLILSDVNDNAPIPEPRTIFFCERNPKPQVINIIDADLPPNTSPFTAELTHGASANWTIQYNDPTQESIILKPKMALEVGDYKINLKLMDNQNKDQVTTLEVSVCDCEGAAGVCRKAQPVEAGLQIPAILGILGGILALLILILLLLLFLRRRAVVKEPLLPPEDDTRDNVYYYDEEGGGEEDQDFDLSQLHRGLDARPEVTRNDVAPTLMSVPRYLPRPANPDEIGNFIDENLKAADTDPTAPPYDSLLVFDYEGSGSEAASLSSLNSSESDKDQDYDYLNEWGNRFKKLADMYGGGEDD

Human iPS cells (hiPSCs) [1] = experiment: Effect of E-cadherin inhibitors on cell-cell contact in pluripotent hiPSCs (phase contrast); assay type: cell-based; conditions: 48 h in MTesR complete media, adherent feeder free
Procedure: Human iPS cells (hiPSCs) were grown under adherent feeder-free culture conditions. All cells were propagated for a minimum of two passages as feeder-free cultures to exclude unwanted residual mouse fibroblast feeder cells. Cells were cultured in MTesR complete medium (Stem Cell Technologies). Cells were cultured on Matrigel™- (BD Biosciences 356234) coated tissue culture grade plates. Matrigel-treated plates were coated with pre-diluted Matrigel™ (1:100 in DMEM/F12 media) and incubated at room temperature prior to use. Media was replenished every 24 h and cells were passaged upon confluency. Cells were dissociated using trypsin-EDTA.
Human iPS cells were grown under standard adherent feeder-free culture conditions prior to induction of differentiation.

Human iPS cells (hiPSCs) [2] = experiment: Neural differentiation of hiPSCs using E-cadherin inhibitors, Nestin immunofluorescence; assay type: cell-based; conditions: day 7; for number of Nestin positive cells: treated daily, peptides 1 mM, antibody 2 μg/ml
Procedure: Human iPSCs were differentiated as previously described. Peptides A, B or C were supplemented to the media at a final concentration of 1 mM and E-cadherin neutralising antibody supplemented to the media at 2 μg/ml daily for 6-7 days. The equivalent volume of water was added to cultures as a vehicle control.
All other methodology was performed as outlined above in connection with neural differentiation and characterisation of resultant neural progenitor cells (NPCs). […] Accordingly, supplementation in this manner may be a preferred embodiment of methods of the invention as practiced upon pluripotent stem cells such as iPSCs.
To initiate differentiation confluent undifferentiated cells were dissociated and seeded at a low density onto gelatin coated wells in differentiation medium supplemented with/without E-cadherin-inhibitors for 7 days. To identify the phenotype of these cells, cultures were harvested at day 7 and immunofluorescent analysis of the neural progenitor cell marker Nestin was performed (FIG. 10).

[3] = tested on: Human ES cells (HUES7, H9, MAN7); experiment: Differentiation of human ES cells towards neural precursor cells in adherent culture, immunofluorescence of neural precursor markers; assay type: cell-based
Procedure: Human ES cell lines, HUES7 (passage 39-44), H9 (passage 50-55) and MAN7 (passage 18-21) were grown under adherent feeder-free culture conditions prior to induction of differentiation. Cells were cultured in STEMPRO® (Invitrogen—complete medium) which comprises; DMEM/F-12+GlutaMAX, 8 ng/ml FGF-basic factor (Peprotec), STEMPRO® hESC SFM Growth Supplement (1×), 1.8% BSA, and 0.1 Mm 2-mercaptoethanol. Cells were cultured on either Matrigel™- (BD Biosciences 356234) or Geltrex™- (Invitrogen 12760-021) coated tissue culture grade plates. Matrigel-treated plates were coated with pre-diluted Matrigel™ (1:100 in DMEM/F12 media) and incubated at room temperature prior to use. Geltrex™-coated plates were coated with pre-diluted Geltrex™ (1:29 in DMEM/F12 media) and incubated for 1 h at 37° C. prior to use. Media was replenished every 24 h and cells were passaged upon confluency. All cells were propagated for a minimum of two passages as feeder-free cultures to exclude unwanted residual mouse fibroblast feeder cells. Cells were dissociated either using trypsin-EDTA (Sigma) or Collagenase IV (Sigma-1 mg/ml final concentration) dependent on the ES cell line used.
Confluent undifferentiated cells were dissociated and seeded at a low density (2.0E5 cells/962 mm2) onto 0.1% w/v gelatin coated wells in differentiation medium alone (DMEM/F-12+GlutaMAX (Invitrogen), 10% Knockout Serum Replacement (KSR) (Invitrogen), Penicillin/Streptomycin (1×) (PAA) for 24 hours prior to media supplementation with an E-cadherin inhibiting peptide (H-Ser-Trp-Glu-Leu-Tyr-Tyr-Pro-Leu-Arg-Ala-Asn-Leu-NH2, >95% purity, acetate salt background) (Bachem) as published in Devemy & Blashuk (2009). Peptide was reconstituted at 30 mg/ml in sterile ddH2O (20 mM stock concentration), with a working concentration 500 μM for inhibition of human E-cadherin. Media (and peptide) were replenished every 2 days for 6-7 days. After this time peptide is no longer necessary. […]
Cells were fixed in 4% w/v paraformaldehyde and stained in situ (Mohamet et al, 2010). […] The cells were viewed on a Leica DM500 fluorescence microscope.

Human ES cells = experiment: Assessment of non-neuronal lineages in directed neural differentiation of human ES cells; assay type: cell-based
Procedure: Confluent undifferentiated cells were dissociated and seeded at a low density (2.0E5 cells/962 mm2) onto 0.1% w/v gelatin coated wells in differentiation medium alone (DMEM/F-12+GlutaMAX (Invitrogen), 10% Knockout Serum Replacement (KSR) (Invitrogen), Penicillin/Streptomycin (1×) (PAA) for 24 hours prior to media supplementation with an E-cadherin inhibiting peptide (H-Ser-Trp-Glu-Leu-Tyr-Tyr-Pro-Leu-Arg-Ala-Asn-Leu-NH2, >95% purity, acetate salt background) (Bachem) as published in Devemy & Blashuk (2009). Peptide was reconstituted at 30 mg/ml in sterile ddH2O (20 mM stock concentration), with a working concentration 500 μM for inhibition of human E-cadherin. Media (and peptide) were replenished every 2 days for 6-7 days. After this time peptide is no longer necessary. Morphological analysis and immunostaining with markers for neural precursor cells and more mature neural cells were performed during the course of the differentiation protocol.
Cells were fixed in 4% w/v paraformaldehyde and stained in situ (Mohamet et al, 2010). […] The cells were viewed on a Leica DM500 fluorescence microscope. […]

With “E-cadherin neutralising antibody (SHE78.7 clone, Invitrogen 13-5700)” the loss of cell-cell contact in hiPSCs (phase contrast, 48 h, antibody 2 ug/ml) (human E-cadherin) was over 85%.

With SRELYYPLRANL [Peptide B, control] the “culture morphology / cell-cell contacts” value (Human iPS cells (hiPSCs) [1]) was “retain the compacted morphology typical of hiPSCs; also recorded: retain the compacted morphology of hiPSCs, without loss of cell-cell contacts” and the “number of Nestin positive cells” value (Human iPS cells (hiPSCs) [2]) was 33%.

For “SWELYYPL (Inhibitory peptide) [Peptide C]”, the “loss of cell-cell contact, proportion of cells” value (Human iPS cells (hiPSCs) [1]) was 50-60%, the “Nestin positive cells, one experiment (variable results)” value (Human iPS cells (hiPSCs) [2]; peptide 1 mM, one experiment only) was “approx. 50%” and the “number of Nestin positive cells” value (Human iPS cells (hiPSCs) [2]) was 76%.

In the case of “SWELYYPLRANL (SWELYYPLRANL-NH2; also: acetate salt) [Peptide A, Study 1 used H-Ser-Trp-Glu-Leu-Tyr-Tyr-Pro-Leu-Arg-Ala-Asn-Leu-NH2 (Bachem, acetate salt background)]”, the “undifferentiated colonies (phase contrast)” value ([3]; cultured 6-7 days in media supplemented with peptide) is reported as “no undifferentiated colonies were observed”, the “number of Nestin positive cells” value ([3]; media supplemented with peptide 500 μM, 7 days of differentiation, n=3) is reported as 95.3% and the “NESTIN and VIMENTIN expression (immunofluorescence)” value ([3]; peptide 500 μM, harvested at day 7) is reported as “homogenous expression”. For the same molecule, the “α smooth muscle actin (mesoderm) expression” value (Human ES cells; cells harvested on day 15, n=3) was “only detected in 1 cell out of all cultures assessed”, the “staining of endoderm marker Forkhead box protein A2 (foxA2)” value (Human ES cells; differentiated for 15 days) was “no positive staining” and the “number of Nestin positive cells” value (Human iPS cells (hiPSCs) [2]) was 94%.

For SWELYYPLRANL (not fully specified) [Peptide A (SWELYYPLRANL)], the “loss of cell-cell contact in hiPSCs (phase contrast, 48 h, peptide 1 mM)” value (human E-cadherin) was over 85%.
